The values that follow are results of earlier work, collected in US20140316796A1, “SYSTEMS, METHODS, AND COMPUTER-READABLE MEDIA FOR LIMITED DISTRIBUTION OF SPECIALTY DRUG USING A COMPUTER HUB OPERATING AT A SINGLE ACCESS POINT” (Jazz Pharmaceuticals, priority 2013, published 2014).

SMILES strings stand for the structures.

For the data set the following is noted: pH 4.

`CSCC[C@@H]1NC(=O)[C@H](CC(C)C)NC(=O)[C@H](CCCNC(=N)N)NC(=O)[C@H](CO)NC(=O)[C@@H]2CSSC[C@@H]3NC(=O)[C@H](CO)NC(=O)CNC(=O)[C@H]([C@@H](C)O)NC(=O)[C@H](CSSC[C@H](N)C(=O)N[C@@H](CCCCN)C(=O)NCC(=O)N[C@@H](CCCCN)C(=O)NCC(=O)N[C@@H](C)C(=O)N[C@@H](CCCCN)C(=O)N2)NC(=O)[C@H](CSSC[C@@H](C(N)=O)NC(=O)[C@H](CCCCN)NC(=O)CNC(=O)[C@H](CO)NC(=O)[C@H](CCCNC(=N)N)NC3=O)NC(=O)[C@H](CC(=O)O)NC(=O)[C@H](Cc2ccc(O)cc2)NC1=O` [ziconotide]: the solution stability result was “stable at 45 °C for weeks”.
